Earlier results as cited in patent publication US7955624B2, “Compositions and methods for increasing adipose metabolism, lipolysis or lipolytic metabolism via thermogenesis” (HHC Formulations Ltd., priority 2006, dated 2011).
Values belong to the compound of their own block, whether it stands above or below them.

How the values were obtained:
[1] = mice
[2] = not given; remark: listed apart in the source
[3] = active treatment versus placebo
[4] = mice; remark: listed apart in the source

Compound: Cn1c(=O)c2c(ncn2C)n(C)c1=O [caffeine]
basal metabolic rate (humans): increase the basal metabolic rate
weight loss (obese women, caffeine supplementation): Significant weight loss

Compound: evodiamine
secretion of adrenergic signaling molecules (bovine adrenal medulla): increase the secretion
body fat [1]: decrease body fat
energy expenditure [1]: increase energy expenditure
lipid mobilization [1]: increase

food intake and growth ([2]; highest dose, 10% phytic acid): reduction
Compound: O=P(O)(O)O[C@H]1[C@H](OP(=O)(O)O)[C@@H](OP(=O)(O)O)[C@H](OP(=O)(O)O)[C@@H](OP(=O)(O)O)[C@H]1OP(=O)(O)O [inositol hexaphosphate, Inositol hexaphosphate]
reducing triglycerides, cholesterol and lipogenic enzymes ([2]; 0.02% to 10% phytic acid in a high sucrose diet): dose-dependent response

Compound: O=C(O)c1cccnc1 [Niacin, nicotinic acid]
high-density lipoprotein cholesterol (HDL-C) [3]: increase
low-density lipoprotein cholesterol (LDL-C) [3]: decrease
total cholesterol [3]: decrease
triglyceride levels [3]: decrease

Compound: CN(C)CCO [deanol, dimethylaminoethanol]
plasma and tissue levels of choline [4]: increase
